According to patent US20110224210A1, “NOVEL BIS-AMIDES AS ANTI-MALARIAL AGENTS” (priority 2008, published 2011):

Test system: P. falciparum K1 (strain resistant to chloroquine and pyrimethamine), erythrocytic stages
Test: Plasmodium falciparum in vitro assay, [3H] hypoxanthine incorporation
Assay type: cell-based
Conditions: Plasmodium falciparum, K1, P. falciparum strain K1; [3H] hypoxanthine incorporation; read-out: IC50 (nM) on K1
Procedure, shortened: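 K1 strain parasites grown in human red cells, 2.5% haematocrit, 0.3% parasitaemia, 37 °C, 4% CO2/3% O2; compounds in seven serial doubling dilutions.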

Question: Which IC50 does the source give for `Cc1ccc(C=CC(=O)N(Cc2ccc(-c3ccncc3)cc2)[C@@H](Cc2ccccc2)C(=O)N2CCC(N(C)C)CC2)cn1` [Example 27, (S)-N-[1-Benzyl-2-(4-dimethylamino-piperidin-1-yl)-2-oxo-ethyl]-3-(6-methyl-pyridin-3-yl)-N-(4-pyridin-4-yl-benzyl)-acrylamide] here?
Answer: The IC50 was 67 nM.

Question: `COc1ccc(C=CC(=O)N(Cc2ccc(N3CCOCC3)nc2)[C@@H](Cc2ccccc2)C(=O)N2CCOCC2)cc1` [Example 148, (S)-N-(1-Benzyl-2-morpholin-4-yl-2-oxo-ethyl)-3-(4-methoxy-phenyl)-N-(6-morpholin-4-yl-pyridin-3-ylmethyl)-acrylamide] was tested. Which IC50 did it give?
Answer: Its IC50 is 65 nM.

Question: `COc1ccc(C=CC(=O)N(Cc2ccc(-c3ccncc3)cc2)[C@@H](Cc2ccccc2)C(=O)N2CCC(N(C)C)CC2)nn1` [Example 26, (S)-N-[1-Benzyl-2-(4-dimethylamino-piperidin-1-yl)-2-oxo-ethyl]-3-(6-methoxy-pyridazin-3-yl)-N-(4-pyridin-4-yl-benzyl)-acrylamide] was tested. Which IC50 did it give?
Answer: Its IC50 is 465 nM.

Question: With `COCCN(C)C(=O)[C@H](Cc1ccccc1)N(Cc1ccc(N2CCN(C(C)=O)CC2)cc1)C(=O)C=Cc1cc(C)nn1C` [Example 104, (S)-N-[4-(4-Acetyl-piperazin-1-yl)-benzyl]-3-(2,5-dimethyl-2H-pyrazol-3-yl)-N-{1-[(2-methoxy-ethyl)-methyl-carbamoyl]-2-phenyl-ethyl}-acrylamide] as the compound, how does the IC50 read?
Answer: Its IC50 is 45 nM.

Question: Which IC50 does the source give for `COCCN(C)C(=O)C(Cc1ncccn1)N(Cc1ccc(-c2ccncc2)cc1)C(=O)C=Cc1ccc(C(F)(F)F)cc1` (racemic) [Example 170] here?
Answer: The IC50 was 192 nM.

Question: For `CN(CCN(C)C(=O)[C@H](Cc1ccccc1)N(Cc1ccc(-c2ccccn2)cc1)C(=O)C=Cc1ccc(C(F)(F)F)cc1)Cc1ccccc1` [Example 220, (S)-N-(1-{[2-(Benzyl-methyl-amino)-ethyl]-methyl-carbamoyl}-2-phenyl-ethyl)-N-(4-pyridin-2-yl-benzyl)-3-(4-trifluoromethyl-phenyl)-acrylamide], which IC50 is on record?
Answer: Its IC50 is 29 nM.

Question: How did the IC50 turn out when `CC(=O)N1CCN(c2ccc(CN(C(=O)C=Cc3ccc(C(F)(F)F)nc3)[C@@H](Cc3ccccc3)C(=O)N(C)CCOCc3ccncc3)cc2)CC1` [Example 208, (S)-N-[4-(4-Acetyl-piperazin-1-yl)-benzyl]-N-(1-{methyl-[2-(pyridin-4-ylmethoxy)-ethyl]-carbamoyl}-2-phenyl-ethyl)-3-(6-trifluoromethyl-pyridin-3-yl)-acrylamide] was run?
Answer: The IC50 was 57 nM.

Question: How did the IC50 turn out when `COc1ccc(COCCN(C)C(=O)[C@H](Cc2ccccc2)N(Cc2ccc(N3CCOCC3)cc2)C(=O)C=Cc2ccc(C(F)(F)F)cc2)cc1F` [Example 196, (S)-N-(1-{[2-(3-Fluoro-4-methoxy-benzyloxy)-ethyl]-methyl-carbamoyl}-2-phenyl-ethyl)-N-(4-morpholin-4-yl-benzyl)-3-(4-trifluoromethyl-phenyl)-acrylamide] was run?
Answer: Its IC50 is 16 nM.

Question: Which IC50 does the source give for `Cc1nn(C)c(C)c1C=CC(=O)N(Cc1ccc(-c2ccncc2)cc1)[C@@H](Cc1ccccc1)C(=O)N1CCC(N(C)C)CC1` [Example 21, (S)-N-[1-Benzyl-2-(4-dimethylamino-piperidin-1-yl)-2-oxo-ethyl]-N-(4-pyridin-4-yl-benzyl)-3-(1,3,5-trimethyl-1H-pyrazol-4-yl)-acrylamide] here?
Answer: The IC50 was 14 nM.

Question: For `COCCN(C)C(=O)[C@H](Cc1ccccc1)N(Cc1ccc(-c2ccncc2)cc1)C(=O)C=Cc1ccc(Cl)nc1` [Example 99, (S)-3-(6-Chloro-pyridin-3-yl)-N-{1-[(2-methoxy-ethyl)-methyl-carbamoyl]-2-phenyl-ethyl}-N-(4-pyridin-4-yl-benzyl)-acrylamide], which IC50 is on record?
Answer: Its IC50 is 17 nM.

Question: With `COCCN(C)C(=O)[C@H](Cc1ccccc1)N(Cc1ccc(N2CCOCC2)nc1)C(=O)C=Cc1ccc(OC)cc1` [Example 159, (S)-N-{1-[(2-Methoxy-ethyl)-methyl-carbamoyl]-2-phenyl-ethyl}-3-(4-methoxy-phenyl)-N-(6-morpholin-4-yl-pyridin-3-ylmethyl)-acrylamide] as the compound, how does the IC50 read?
Answer: Its IC50 is 49 nM.
